One assay concerns HepG2. As to the kind of experiment: MTT antiproliferative assay, HepG2. The format is cell-based, human. Conditions: 72 h, hepatoma HepG2. The protocol:
(§1) The colorimetric MTT (3-(4,5-dimethylthiazol-2-yl)-2,5-diphenyltetrazolium bromide) assay was used to measure the cell viability of all of the above cell lines following treatment with target hybrids. Exponentially growing cells were added into 96-well plates at a concentration of 2000–4000 cells per well. Following attachment the cells were treated with varying concentrations (64, 16, 4, 1, 0.25, 0.0625 and 0.015625 µM) of target compounds in media and were kept for incubation for 72 h. MTT (20 µL, 5 mg/mL in PBS) was added to each well and the cells were incubated for another 3 h at 37 °C. Then the medium was removed, followed by the addition of 150 µL DMSO for each well. After that, the absorbance (OD) data of each well at 570 nm wavelength were measured by a Microplate Reader (BIO-RAD), and half inhibition rates (IC50) were calculated[59]^,[60].
In general terms: Formazan colour is commonly taken as a measure of viable cells.

In the next assay the test system is PBMC. As to the kind of experiment: MTT assay, peripheral blood mononuclear cells. As to conditions: 72 h. The class given is cell-based, human. The protocol:
as §1

Another assay relates to HCT-116. As to the kind of experiment: MTT antiproliferative assay, HCT-116. The class given is cell-based, human. As to conditions: 72 h, colorectal carcinoma HCT-116. The procedure: as §1
The subject of another assay is MCF-7. As to the kind of experiment: MTT antiproliferative assay, MCF-7. As to conditions: 72 h, breast carcinoma MCF-7. The format is cell-based, human. The procedure: as §1
The test system of the next assay is L-02. The experiment in a line: MTT assay, normal hepatic L-02 cell line. The class given is cell-based. As to conditions: 72 h, human normal hepatic L-02 cell line. The procedure: as §1
For the next assay, the system named is B16. As to the kind of experiment: MTT antiproliferative assay, B16. Conditions: 72 h, melanoma B16. The class given is cell-based. The protocol: as §1
The subject of another assay is K562. As to the kind of experiment: MTT antiproliferative assay, K562. The class given is cell-based, human. Conditions: 72 h, chronic myeloid leukaemia K562. The procedure:
as §1

Broadly, the IC50 is the point on the concentration scale where inhibition reaches its midpoint. Low readings indicate greater potency in that assay, high ones weaker potency in that assay. Take “2-((1-(6-Methyl-4-oxo-4H-chromene-3-carboxamido)propan-2-yl)oxy)-3-(phenylsulfonyl)-1,2,5-oxadiazole 2-oxide [14a]”: the concentration for half-maximal inhibition (IC50) in the assay on HepG2 is 19.9 ± 1.31 µM; in the assay with PBMC, more than 50 µM; in the assay on HCT-116, 29.6 ± 1.48 µM; in the assay on MCF-7 it was more than 50 µM; with L-02 it was more than 50 µM; in the assay with B16 it was 27.9 ± 1.23 µM. The substance also came in with an IC50 with K562 of 13.6 ± 0.85 µM.
Regarding “4-(2-(4-(3-Carboxy-6-methyl-4-oxo-4H-chromen-2-yl)piperazin-1-yl)ethoxy)-3-(phenlsulfonyl)-1,2,5-oxadiazole 2-oxide [14d]”, the IC50 in the assay with HepG2 is 5.38 ± 0.19 µM; in the assay on PBMC, more than 50 µM; in the assay with HCT-116, 7.87 ± 0.32 µM; in the assay on MCF-7, 13.8 ± 0.49 µM; with L-02, 28.9 ± 1.43 µM; with B16, 11.7 ± 0.52 µM. Besides, in the assay with K562, the midpoint of inhibition, the IC50, lay at 2.75 ± 0.17 µM.
Turning to “4-(2-(6-Methoxy-4-oxo-4H-chromene-3-carboxamido)ethoxy)-3-(phenylsulfonyl)-1,2,5-oxadiazole 2-oxide [13a]”, the IC50 was 10.6 ± 0.72 µM in the assay with HepG2; more than 50 µM with PBMC; 13.2 ± 0.53 µM with HCT-116; 22.1 ± 1.38 µM with MCF-7; more than 50 µM with L-02; 16.8 ± 0.74 µM in the assay with B16. This substance came in with an IC50 in the assay with K562 of 5.89 ± 0.26 µM.
Take “4-(2-((3-Carboxy-6-methoxy-4-oxo-4H-chromen-2-yl)amino)ethoxy)-3-(phenylsulfonyl)-1,2,5-oxadiazole 2-oxide [13b]”: the IC50 is 22.6 ± 1.39 µM in the assay with HepG2; more than 50 µM with PBMC; 26.9 ± 1.4 µM with HCT-116; 24.8 ± 1.28 µM in the assay with MCF-7; more than 50 µM with L-02; 26.8 ± 1.22 µM with B16. In the assay on K562, this substance had a 50% inhibitory concentration (IC50) of 13.6 ± 0.76 µM.
As to “4-(2-((3-Carboxy-6-methyl-4-oxo-4H-chromen-2-yl)amino)ethoxy)-3-(phenylsulfonyl)-1,2,5-oxadiazole 2-oxide [12b]”, the IC50 in the assay on HepG2 is 21.3 ± 1.58 µM; in the assay on PBMC, more than 50 µM; in the assay on HCT-116 it was 26.9 ± 1.61 µM; in the assay on MCF-7, 26.6 ± 1.6 µM; in the assay with L-02 it was more than 50 µM; in the assay with B16, 31.4 ± 1.34 µM. This substance returned an IC50 with K562 of 12.5 ± 1.03 µM.
With “4-(3-(6-Methyl-4-oxo-4H-chromene-3-carboxamido)propoxy)-3-(phenylsulfonyl)-1,2,5-oxadiazole 2-oxide [12c]”, the 50% inhibitory concentration (IC50) with HepG2 is 21.5 ± 1.23 µM; in the assay with PBMC, more than 50 µM; in the assay on HCT-116, 25.4 ± 1.76 µM; with MCF-7, more than 50 µM; in the assay on L-02, more than 50 µM; in the assay with B16, 26.9 ± 1.08 µM. The same substance yielded an IC50 with K562 of 12.5 ± 0.77 µM.
On to “4-(3-((3-Carboxy-6-methoxy-4-oxo-4H-chromen-2-yl)amino)propoxy)-3-(phenylsulfonyl)-1,2,5-oxadiazole 2-oxide [13d]”, for which the IC50 with HepG2, in the assay on PBMC, in the assay on HCT-116, in the assay on MCF-7, in the assay on L-02 and in the assay with B16 was more than 50 µM in each case. In addition, the half-inhibitory concentration (IC50) in the assay with K562 was more than 50 µM.
Take “4-(3-((3-Carboxy-6-methyl-4-oxo-4H-chromen-2-yl)amino)propoxy)-3-(phenylsulfonyl)-1,2,5-oxadiazole 2-oxide [12d]”: the IC50 in the assay with HepG2 was 7.91 ± 0.4 µM; in the assay with PBMC, more than 50 µM; in the assay on HCT-116 it was 8.64 ± 0.58 µM; in the assay on MCF-7 it was 15.9 ± 0.66 µM; in the assay on L-02 it was 33.6 ± 2.95 µM; in the assay with B16, 9.96 ± 0.67 µM. In addition, in the assay on K562, the IC50 came out at 4.94 ± 0.25 µM.
As to “4-((1-((3-Carboxy-6-methoxy-4-oxo-4H-chromen-2-yl)amino)propan-2-yl)oxy)-3-(phenylsulfonyl)-1,2,5-oxadiazole 2-oxide [15b]”, the IC50 in the assay on HepG2, in the assay on PBMC, in the assay on HCT-116, in the assay with MCF-7, in the assay with L-02 and with B16 was more than 50 µM throughout. The substance further showed a 50% inhibitory concentration (IC50) in the assay with K562 of more than 50 µM.
